For one assay, the target named is PBP3 (Klebsiella pneumoniae, UniProt A0A0H3GN85). More on the design: method as in PMID 29712652. Particulars: read-out: IC50, PBP3; value in parentheses; K. pneumoniae ATCC 43816; cited from earlier work.
A further assay concerns the target T1, PBP1b (Escherichia coli, UniProt P02919).
T1 construct: Five microliters of total bacterial membrane preparation was mixed with 5 μL of a test compound; endogenous in cells; host or cells: Escherichia coli ECM5497 (MG1655), total membrane preparation
More on the design: method as in PMID 18250190. The settings on record: read-out: IC50, PBP1b; value in parentheses; E. coli MC1400; cited from earlier work.

The target of a further assay is T2, PBP1a (Pseudomonas aeruginosa, UniProt Q07806).
T2 construct: Five microliters of total bacterial membrane preparation was mixed with 5 μL of a test compound; endogenous in cells
T2 sequence (Q07806 whole entry): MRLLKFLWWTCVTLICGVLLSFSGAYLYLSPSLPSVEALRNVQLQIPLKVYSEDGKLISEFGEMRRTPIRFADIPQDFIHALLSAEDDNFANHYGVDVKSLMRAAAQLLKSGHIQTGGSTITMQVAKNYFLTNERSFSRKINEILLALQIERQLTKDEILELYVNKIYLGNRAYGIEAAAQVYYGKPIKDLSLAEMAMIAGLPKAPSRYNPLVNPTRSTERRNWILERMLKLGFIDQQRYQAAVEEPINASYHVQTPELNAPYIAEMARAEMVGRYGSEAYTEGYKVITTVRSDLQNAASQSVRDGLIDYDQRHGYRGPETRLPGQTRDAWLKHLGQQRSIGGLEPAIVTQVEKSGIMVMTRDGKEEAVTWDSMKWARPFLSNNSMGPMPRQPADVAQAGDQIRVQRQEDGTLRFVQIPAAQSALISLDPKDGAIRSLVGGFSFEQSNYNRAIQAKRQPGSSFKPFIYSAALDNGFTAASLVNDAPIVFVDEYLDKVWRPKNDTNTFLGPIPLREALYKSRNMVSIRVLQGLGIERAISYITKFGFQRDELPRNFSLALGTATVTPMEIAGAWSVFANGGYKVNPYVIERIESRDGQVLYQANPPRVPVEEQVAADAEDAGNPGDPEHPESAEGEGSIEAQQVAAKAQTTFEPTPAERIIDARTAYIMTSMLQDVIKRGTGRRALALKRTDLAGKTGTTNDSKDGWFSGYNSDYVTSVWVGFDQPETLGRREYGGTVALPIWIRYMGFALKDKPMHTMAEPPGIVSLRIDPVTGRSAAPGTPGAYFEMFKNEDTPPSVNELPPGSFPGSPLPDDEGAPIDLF
More on the design: method as in PMID 18250190. The settings on record: value in parentheses; P. aeruginosa PAO1; cited from earlier work.

For assay [1], the target named is PBP1a/PBP1b, PBP2, and PBP3. Description: Bocillin FL competition PBP binding assay, summary for two species. The settings on record: PBP2, and PBP3 from E. coli and K. pneumoniae, read-out: IC50 range. As to the method: (§1) Ten milliliters of overnight bacterial culture was inoculated in 1 L of LB medium and grown to an OD600 of 0.7 to 0.9. The cell pellet was washed once with 50 mL of solution containing 100 mM Na-phosphate at pH 7.0 and 100 mM NaCl and resuspended in 10 mL of the same buffer with one tablet of EDTA-free mini-protease inhibitor and 10 mg of lysozyme. Cell suspensions were incubated for 45 min at 37°C, and then 200 μL of DNase I was added along with MgSO4 (to a final concentration of 10 mM), followed by three cycles of freeze-thawing (10 min and 20 min, respectively). Four cycles of sonication at maximum power were performed next, each cycle lasting for 30 s with 1 min on ice between cycles. The cell suspension was centrifuged at 12,000 × g for 10 min at 4°C. The supernatant was collected and centrifuged at 100,000 × g for 45 min at 4°C. The pellet was washed three times with 10 mL of 100 mM Na-phosphate, pH 7.0, by resuspension and subsequent centrifugation at 100,000 × g for 10 min at 4°C. The pellet was finally resuspended in 1.5 mL of 100 mM Na-phosphate, pH 7.0, and passed several times through a Dounce homogenizer (tight pestle). […]
(§2) Five microliters of total bacterial membrane preparation was mixed with 5 μL of a test compound at a desired concentration in 100 mM Na-phosphate buffer, pH 7.0. […] IC50 values were calculated with Prism software (GraphPad).

Assay [2] has as its system major PBPs in total membrane preparations. Description: Bocillin FL competition PBP binding assay, probe incubation at 30°C. Details: species or system E. coli, K. pneumoniae, A. baumannii, and P. aeruginosa. Particulars: concentrations up to 300 μM; fluorescent probe incubation at 30°C. The protocol:
as §1, §2

The test system of another assay is Proteus mirabilis. In words: Broth microdilution MIC (CLSI), Proteus mirabilis. Particulars: 23 isolates. The class given is cell-based. An excerpt:
Bacterial isolates were subjected to broth microdilution susceptibility testing, performed according to Clinical and Laboratory Standards Institute (CLSI) methods ([46]), using panels prepared in-house. Meropenem was purchased from Sandoz, and all other antibiotics were from Sigma-Aldrich. Xeruborbactam was synthesized at Qpex Biopharma, San Diego, CA. Avibactam was purchased from eNovation Chemicals LLC, Bridgewater, NJ, USA; zidebactam was from MedKoo Biosciences, Inc., Morrisville, NC, and nacubactam was from Advanced ChemBlocks, Hayward, CA. Durlobactam was synthesized at Acme Bioscience, Palo Alto, CA, USA.
In general terms: Broth dilution looks for growth in wells or tubes with falling amounts of substance.

Assay [3] relates to K. pneumoniae strain KPM1026a. Description: Fluorescence microscopy, cellular morphology. The class given is cell-based, Klebsiella pneumoniae. The settings on record: treated at 1× and 2× MIC, 1 to 2 h, 30°C. The protocol:
Single colonies of K. pneumoniae strain KPM1026a, A. baumannii strain ATCC 17978, and P. aeruginosa strain PAM1154 were picked from LB agar plates, inoculated in cation-adjusted Mueller-Hinton broth (CA-MHB), and incubated overnight at 30°C with rolling. Overnight cultures were diluted into fresh CA-MHB and incubated at 30°C, with rolling, until they reached an OD600 of ≈0.12 to 0.15 (equivalent to ~2 × 10^8 CFU/mL). Samples were then treated with compounds and incubated at 30°C, with rolling. After 1 or 2 h of treatment, cells were collected and stained with a dye mix containing FM4-64 (1 μg/mL), DAPI (4′,6-diamidino-2-phenylindole) (2 μg/mL), and SYTOX green (0.5 μM) (Molecular Probes, Invitrogen, or Thermo Fisher Scientific). Cells were transferred onto an agarose pad containing 1.2% agarose and 20% LB medium for microscopy. Microscopy was performed as previously described ([34]).

Values after ≈ are worked out from the molar mass of the structure shown.

Chain of PBP3 (A0A0H3GN85 entry or part of it): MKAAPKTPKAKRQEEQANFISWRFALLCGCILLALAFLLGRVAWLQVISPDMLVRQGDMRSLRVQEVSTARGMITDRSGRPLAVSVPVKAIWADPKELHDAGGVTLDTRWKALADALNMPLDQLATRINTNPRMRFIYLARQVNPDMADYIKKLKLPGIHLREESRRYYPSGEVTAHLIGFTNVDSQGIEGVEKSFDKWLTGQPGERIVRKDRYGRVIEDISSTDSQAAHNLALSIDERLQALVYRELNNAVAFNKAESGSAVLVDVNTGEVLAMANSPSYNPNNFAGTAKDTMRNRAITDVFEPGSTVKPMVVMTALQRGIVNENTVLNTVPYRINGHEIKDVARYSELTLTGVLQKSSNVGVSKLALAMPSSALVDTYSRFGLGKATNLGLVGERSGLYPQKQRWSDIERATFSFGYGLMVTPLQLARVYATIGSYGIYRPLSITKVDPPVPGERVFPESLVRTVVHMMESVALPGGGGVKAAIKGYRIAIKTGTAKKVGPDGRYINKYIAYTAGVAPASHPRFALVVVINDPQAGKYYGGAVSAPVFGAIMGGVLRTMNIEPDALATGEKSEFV
T1 sequence (P02919 whole entry): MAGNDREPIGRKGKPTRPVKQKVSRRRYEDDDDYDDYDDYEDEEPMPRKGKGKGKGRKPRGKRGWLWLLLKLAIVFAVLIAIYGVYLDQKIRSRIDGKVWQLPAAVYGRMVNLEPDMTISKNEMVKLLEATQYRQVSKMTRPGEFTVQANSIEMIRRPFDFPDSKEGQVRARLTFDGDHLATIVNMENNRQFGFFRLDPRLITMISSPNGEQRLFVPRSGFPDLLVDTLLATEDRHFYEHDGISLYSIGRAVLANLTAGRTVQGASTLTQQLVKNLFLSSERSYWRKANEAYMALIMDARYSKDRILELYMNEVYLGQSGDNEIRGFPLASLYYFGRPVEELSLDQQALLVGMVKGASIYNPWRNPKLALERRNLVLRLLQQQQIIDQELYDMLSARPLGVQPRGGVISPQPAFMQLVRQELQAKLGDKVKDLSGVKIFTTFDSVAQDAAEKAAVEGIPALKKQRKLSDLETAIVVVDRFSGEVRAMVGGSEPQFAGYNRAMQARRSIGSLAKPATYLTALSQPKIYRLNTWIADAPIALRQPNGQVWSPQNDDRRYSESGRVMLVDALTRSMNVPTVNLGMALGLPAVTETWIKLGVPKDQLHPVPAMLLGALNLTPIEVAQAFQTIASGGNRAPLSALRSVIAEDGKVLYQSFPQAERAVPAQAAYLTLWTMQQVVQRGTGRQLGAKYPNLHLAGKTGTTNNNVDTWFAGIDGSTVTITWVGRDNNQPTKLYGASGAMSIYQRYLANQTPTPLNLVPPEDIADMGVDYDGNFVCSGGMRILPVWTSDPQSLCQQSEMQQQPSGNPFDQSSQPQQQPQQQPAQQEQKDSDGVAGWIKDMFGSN

Broadly, the IC50 is the point on the concentration scale where inhibition reaches its midpoint. Take `C[C@@H](O)[C@H]1C(=O)N2C(C(=O)O)=C(S[C@@H]3CN[C@H](C(=O)N(C)C)C3)[C@H](C)[C@H]12` [Meropenem]: the figures for the IC50 at PBP3, at PBP1b and on PBP1a were 310 nM, 3400 nM and 500 nM, respectively.

The term MIC50 denotes the lowest concentration that inhibits either 50% of growth or 50% of the strains tested, depending on the study. Low values mean greater potency, high ones weaker potency. As a reminder, the MIC90 is the lowest concentration that inhibits either 90% of growth or 90% of the strains tested, depending on the study. Read a high MIC90 as lower susceptibility. Take `O=C(O)c1c(F)ccc2c1OB(O)[C@@H]1C[C@H]21` [Xeruborbactam]: the IC50 in assay [1] is 40000 to 70000 nM. Moreover, the “interaction with PBPs” value in assay [2] is reported as “No detectable interactions”. In the assay with Proteus mirabilis, the MIC50 was determined as 16 µg/mL (≈ 72.1 µM) and the MIC90 came to 32 µg/mL (≈ 144 µM). Further, the cellular morphology entry in assay [3] is “increased cell length relative to that of the untreated controls and bulges that developed at midcell”.

Values taken from article PMC9578396, “Intrinsic Antibacterial Activity of Xeruborbactam In Vitro: Assessing Spectrum and Mode of Action” (Antimicrobial Agents and Chemotherapy, 2022).
